Data published in the supplement of paper PMC13207355.

Tests used:
Details in all cases: exposure time: 72 h
E13 [1] = patient-derived glioblastoma stem cells of classical subtype; test: surviving fraction (nuclei count normalised to DMSO); higher = more cells surviving (less toxic)
E21 [2] = patient-derived glioblastoma stem cells of mesenchymal subtype; test: as above
E28 [3] = patient-derived glioblastoma stem cells of classical subtype; test: as above
E31 [4] = patient-derived glioblastoma stem cells of proneural subtype; test: as above
E34 [5] = patient-derived glioblastoma stem cells of proneural subtype; test: as above
E57 [6] = patient-derived glioblastoma stem cells of mesenchymal subtype; test: as above
FT3469 [7] = normal neural stem cell line; test: as above
E13 [8] = test: phenotypic distance (Euclidean, principal components) from DMSO controls (arbitrary units); higher = stronger morphological change
E21 [9] = test: as above
E28 [10] = test: as above
E31 [11] = test: as above
E34 [12] = test: as above
E57 [13] = test: as above
FT3469 [14] = test: as above
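For phenotypic distance (Euclidean, principal components) from DMSO controls in this document: cell Painting imaging in 384-well plates, CellProfiler features reduced to at least 20 principal components, Euclidean distance versus same-plate DMSO vehicle wells (0.1% v/v), median over six images per well.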
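For surviving fraction (nuclei count normalised to DMSO) in this document: nuclei counted by high-content imaging of Hoechst-stained cells in laminin-coated 384-well plates, relative to 0.1% DMSO vehicle wells, with staurosporine as cell-death control.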

CCN1CCN(C(=O)Cc2ccc(Nc3ncc(F)c(Nc4ccc(C(=O)Nc5ccccc5Cl)cc4)n3)cc2)CC1 [Aurora-A Inhibitor I]
Details | phenotypic distance | surviving fraction
E13 [1], 4.1 nM | – | 0.898
E13 [1], 12.3 nM | – | 0.858
E13 [1], 37 nM | – | 0.898
E13 [1], 111.1 nM | – | 0.786
E13 [1], 333.3 nM | – | 0.755
E13 [1], 1000 nM | – | 0.643
E13 [1], 3000 nM | – | 0.588
E13 [8], 4.1 nM | 0.68 | –
E13 [8], 12.3 nM | 0.752 | –
E13 [8], 37 nM | 1.14 | –
E13 [8], 111.1 nM | 1.23 | –
E13 [8], 333.3 nM | 1.57 | –
E13 [8], 1000 nM | 2.01 | –
E13 [8], 3000 nM | 2.52 | –
E21 [2], 4.1 nM | – | 0.962
E21 [2], 12.3 nM | – | 0.968
E21 [2], 37 nM | – | 0.937
E21 [2], 111.1 nM | – | 1.04
E21 [2], 333.3 nM | – | 0.873
E21 [2], 1000 nM | – | 0.369
E21 [2], 3000 nM | – | 0.0545
E21 [9], 4.1 nM | 0.463 | –
E21 [9], 12.3 nM | 0.798 | –
E21 [9], 37 nM | 0.695 | –
E21 [9], 111.1 nM | 0.686 | –
E21 [9], 333.3 nM | 0.809 | –
E21 [9], 1000 nM | 3.84 | –
E21 [9], 3000 nM | 8.57 | –
E28 [3], 4.1 nM | – | 0.826
E28 [3], 12.3 nM | – | 1.04
E28 [3], 37 nM | – | 0.98
E28 [3], 111.1 nM | – | 1.01
E28 [3], 333.3 nM | – | 0.732
E28 [3], 1000 nM | – | 0.295
E28 [3], 3000 nM | – | 0.265
E28 [10], 4.1 nM | 0.837 | –
E28 [10], 12.3 nM | 1.2 | –
E28 [10], 37 nM | 0.715 | –
E28 [10], 111.1 nM | 0.655 | –
E28 [10], 333.3 nM | 1.3 | –
E28 [10], 1000 nM | 5.35 | –
E28 [10], 3000 nM | 7.22 | –
E31 [4], 4.1 nM | – | 0.968
E31 [4], 12.3 nM | – | 0.879
E31 [4], 37 nM | – | 0.989
E31 [4], 111.1 nM | – | 0.819
E31 [4], 333.3 nM | – | 0.602
E31 [4], 1000 nM | – | 0.0846
E31 [4], 3000 nM | – | 0.0618
E31 [11], 4.1 nM | 0.624 | –
E31 [11], 12.3 nM | 0.904 | –
E31 [11], 37 nM | 0.48 | –
E31 [11], 111.1 nM | 0.975 | –
E31 [11], 333.3 nM | 1.09 | –
E31 [11], 1000 nM | 6.37 | –
E31 [11], 3000 nM | 11.8 | –
E34 [5], 4.1 nM | – | 0.935
E34 [5], 12.3 nM | – | 0.848
E34 [5], 37 nM | – | 0.988
E34 [5], 111.1 nM | – | 0.958
E34 [5], 333.3 nM | – | 0.736
E34 [5], 1000 nM | – | 0.635
E34 [5], 3000 nM | – | 0.198
E34 [12], 4.1 nM | 0.739 | –
E34 [12], 12.3 nM | 0.951 | –
E34 [12], 37 nM | 0.479 | –
E34 [12], 111.1 nM | 0.728 | –
E34 [12], 333.3 nM | 0.971 | –
E34 [12], 1000 nM | 1.96 | –
E34 [12], 3000 nM | 9.28 | –
E57 [6], 4.1 nM | – | 0.996
E57 [6], 12.3 nM | – | 0.998
E57 [6], 37 nM | – | 0.968
E57 [6], 111.1 nM | – | 1.03
E57 [6], 333.3 nM | – | 0.905
E57 [6], 1000 nM | – | 0.513
E57 [6], 3000 nM | – | 0.0372
E57 [13], 4.1 nM | 0.556 | –
E57 [13], 12.3 nM | 1.22 | –
E57 [13], 37 nM | 0.495 | –
E57 [13], 111.1 nM | 0.921 | –
E57 [13], 333.3 nM | 1.17 | –
E57 [13], 1000 nM | 3.49 | –
E57 [13], 3000 nM | 11.6 | –
FT3469 [7], 4.1 nM | – | 1.01
FT3469 [7], 12.3 nM | – | 0.895
FT3469 [7], 37 nM | – | 0.866
FT3469 [7], 111.1 nM | – | 0.883
FT3469 [7], 333.3 nM | – | 1.04
FT3469 [7], 1000 nM | – | 0.483
FT3469 [7], 3000 nM | – | 0.394
FT3469 [14], 4.1 nM | 0.518 | –
FT3469 [14], 12.3 nM | 0.954 | –
FT3469 [14], 37 nM | 0.712 | –
FT3469 [14], 111.1 nM | 0.933 | –
FT3469 [14], 333.3 nM | 0.835 | –
FT3469 [14], 1000 nM | 1.89 | –
FT3469 [14], 3000 nM | 13.2 | –

CCC(=O)OCC(=O)[C@@]1(OC(=O)CC)[C@H](C)C[C@H]2[C@H]3[C@H]([C@@H](O)C[C@@]21C)[C@@]1(C)C=CC(=O)C=C1C[C@H]3Cl [Alclometasone dipropionate]
Details | phenotypic distance | surviving fraction
E13 [1], 4.1 nM | – | 0.975
E13 [1], 12.3 nM | – | 0.888
E13 [1], 37 nM | – | 0.926
E13 [1], 111.1 nM | – | 0.859
E13 [1], 333.3 nM | – | 0.951
E13 [1], 1000 nM | – | 0.974
E13 [1], 3000 nM | – | 0.671
E13 [8], 4.1 nM | 1.28 | –
E13 [8], 12.3 nM | 1.12 | –
E13 [8], 37 nM | 1.27 | –
E13 [8], 111.1 nM | 1.15 | –
E13 [8], 333.3 nM | 1.25 | –
E13 [8], 1000 nM | 1.24 | –
E13 [8], 3000 nM | 1.47 | –
E21 [2], 4.1 nM | – | 1.32
E21 [2], 12.3 nM | – | 1.26
E21 [2], 37 nM | – | 1.21
E21 [2], 111.1 nM | – | 1.39
E21 [2], 333.3 nM | – | 1.2
E21 [2], 1000 nM | – | 1.2
E21 [2], 3000 nM | – | 1.1
E21 [9], 4.1 nM | 1.94 | –
E21 [9], 12.3 nM | 2.13 | –
E21 [9], 37 nM | 2.45 | –
E21 [9], 111.1 nM | 3.04 | –
E21 [9], 333.3 nM | 2.13 | –
E21 [9], 1000 nM | 2.23 | –
E21 [9], 3000 nM | 2.27 | –
E28 [3], 4.1 nM | – | 1.25
E28 [3], 12.3 nM | – | 0.854
E28 [3], 37 nM | – | 1.17
E28 [3], 111.1 nM | – | 0.928
E28 [3], 333.3 nM | – | 1.08
E28 [3], 1000 nM | – | 1.38
E28 [3], 3000 nM | – | 0.939
E28 [10], 4.1 nM | 0.573 | –
E28 [10], 12.3 nM | 0.69 | –
E28 [10], 37 nM | 0.865 | –
E28 [10], 111.1 nM | 0.821 | –
E28 [10], 333.3 nM | 0.465 | –
E28 [10], 1000 nM | 1.06 | –
E28 [10], 3000 nM | 0.433 | –
E31 [4], 4.1 nM | – | 1.3
E31 [4], 12.3 nM | – | 1.46
E31 [4], 37 nM | – | 1.4
E31 [4], 111.1 nM | – | 1.41
E31 [4], 333.3 nM | – | 1.12
E31 [4], 1000 nM | – | 1.19
E31 [4], 3000 nM | – | 1.23
E31 [11], 4.1 nM | 2.71 | –
E31 [11], 12.3 nM | 4.05 | –
E31 [11], 37 nM | 4.11 | –
E31 [11], 111.1 nM | 3.84 | –
E31 [11], 333.3 nM | 2.94 | –
E31 [11], 1000 nM | 3.4 | –
E31 [11], 3000 nM | 3.3 | –
E34 [5], 4.1 nM | – | 1.1
E34 [5], 12.3 nM | – | 1.15
E34 [5], 37 nM | – | 1.1
E34 [5], 111.1 nM | – | 1.1
E34 [5], 333.3 nM | – | 0.991
E34 [5], 1000 nM | – | 1.06
E34 [5], 3000 nM | – | 0.984
E34 [12], 4.1 nM | 0.626 | –
E34 [12], 12.3 nM | 1.12 | –
E34 [12], 37 nM | 0.662 | –
E34 [12], 111.1 nM | 1.42 | –
E34 [12], 333.3 nM | 1.36 | –
E34 [12], 1000 nM | 1.38 | –
E34 [12], 3000 nM | 1.48 | –
E57 [6], 4.1 nM | – | 1.12
E57 [6], 12.3 nM | – | 1.18
E57 [6], 37 nM | – | 1.1
E57 [6], 111.1 nM | – | 1.07
E57 [6], 333.3 nM | – | 1.11
E57 [6], 1000 nM | – | 1.14
E57 [6], 3000 nM | – | 1.13
E57 [13], 4.1 nM | 1.91 | –
E57 [13], 12.3 nM | 2.63 | –
E57 [13], 37 nM | 2.58 | –
E57 [13], 111.1 nM | 2.62 | –
E57 [13], 333.3 nM | 3.15 | –
E57 [13], 1000 nM | 3.25 | –
E57 [13], 3000 nM | 2.81 | –
FT3469 [7], 4.1 nM | – | 1.16
FT3469 [7], 12.3 nM | – | 1.29
FT3469 [7], 37 nM | – | 1.33
FT3469 [7], 111.1 nM | – | 1.15
FT3469 [7], 333.3 nM | – | 1.07
FT3469 [7], 1000 nM | – | 1.19
FT3469 [7], 3000 nM | – | 1.02
FT3469 [14], 4.1 nM | 1.11 | –
FT3469 [14], 12.3 nM | 1.62 | –
FT3469 [14], 37 nM | 1.67 | –
FT3469 [14], 111.1 nM | 2.12 | –
FT3469 [14], 333.3 nM | 1.8 | –
FT3469 [14], 1000 nM | 1.92 | –
FT3469 [14], 3000 nM | 1.23 | –
